Reference: patent publication US12404239B2, “Modulators of BCL6 as ligand directed degraders” (Celgene Corporation, priority 2022, dated 2025)

Biological target: T1, BCL6 (Homo sapiens, UniProt P41182)
T1 construct: HiBiT-tag knocked into endogenous BCL6 locus using CRISPR; endogenous in cells; host or cells: DHL-4_BCL6_HiBiT cells (CRISPR knock-in)
Assay: BCL6_HiBiT degradation assay (2 h)
Assay type: cell-based
Conditions: DHL-4_BCL6_HiBiT cells; for Percent BCL6 remaining at maximal degradation (Ycon): read-out: YCon (% remaining maximal effect)
Summary of the method: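 DHL-4 cells carrying CRISPR HiBiT knock-in at endogenous BCL6, treated 2 h at 37 °C with 10-point 3-fold dilutions from 1-10 μM. BCL6 level read by Nano-Glo HiBiT lytic luminescence normalized to DMSO; four-parameter fit gives degradation EC50 and Yconstant (% remaining at maximal effect).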

| Percent BCL6 remaining at maximal degradation (Ycon) | YCon (% remaining maximal effect) | SMILES |
| --- | --- | --- |
| < 20% | – | C[C@@H]1CN(c2ncc(Cl)c(Nc3ccc4c(c3)C(F)(F)C(=O)N4C)n2)CC[C@H]1Nc1ccc2c(C3CCC(=O)NC3=O)nn(C)c2c1 (stereo partly drawn) [Example 56, 3-(6-(((3R,4R)-1-(5-chloro-4-((3,3-difluoro-1-methyl-2-oxoindolin-5-yl)amino)pyrimidin-2-yl)-3-methylpiperidin-4-yl)amino)-1-methyl-1H-indazol-3-yl)piperidine-2,6-dione] |
| – | (>60%) | CN1C(=O)Cc2cc(Nc3nc(N4CCC(Nc5ccc6c(C7CCC(=O)NC7=O)nn(C)c6c5)CC4)ncc3Cl)ccc21 (single isomer, unassigned) [Example 54] |
| < 20% | – | C[C@@H]1CN(c2ncc(Cl)c(Nc3ccc4c(c3)CC(=O)N4C)n2)CC[C@H]1Nc1ccc2c(C3CCC(=O)NC3=O)nn(C)c2c1 (stereo partly drawn) [Example 70, 3-(6-(((3R,4R)-1-(5-chloro-4-((1-methyl-2-oxoindolin-5-yl)amino)pyrimidin-2-yl)-3-methylpiperidin-4-yl)amino)-1-methyl-1H-indazol-3-yl)piperidine-2,6-dione] |
| 20 to 60% | – | CN1C(=O)Cc2cc(Nc3nc(N4CC[C@H](Nc5ccc6c(C7CCC(=O)NC7=O)nn(C)c6c5)C(F)(F)C4)ncc3Cl)ccc21 (stereo partly drawn) [Example 67, 3-(6-(((S)-1-(5-chloro-4-((1-methyl-2-oxoindolin-5-yl)amino)pyrimidin-2-yl)-3,3-difluoropiperidin-4-yl)amino)-1-methyl-1H-indazol-3-yl)piperidine-2,6-dione] |
| < 20% | – | C[C@@H]1CN(c2ncc(Cl)c(Nc3ccc4c(c3)CC(=O)N4CCN3CCOCC3)n2)CC[C@H]1Nc1ccc2c([C@@H]3CCC(=O)NC3=O)nn(C)c2c1 (single isomer, unassigned) [Example 103] |
| < 20% | – | C[C@@H]1CN(c2ncc(Cl)c(Nc3ccc4c(c3)CC(=O)N4CC(C)(F)F)n2)CC[C@H]1Nc1ccc2c([C@@H]3CCC(=O)NC3=O)nn(C)c2c1 (single isomer, unassigned) [Example 112] |
| > 60% | – | C[C@H]1CN(c2ncc(Cl)c(Nc3ccc4c(c3)CC(=O)N4C)n2)CC[C@@H]1Nc1ccc2c(C3CCC(=O)NC3=O)nn(C)c2c1 (stereo partly drawn) [Example 14, 3-(6-(((3S,4S)-1-(5-chloro-4-((1-methyl-2-oxoindolin-5-yl)amino)pyrimidin-2-yl)-3-methylpiperidin-4-yl)amino)-1-methyl-1H-indazol-3-yl)piperidine-2,6-dione] |
| 20 to 60% | – | CN1C(=O)Cc2cc(Nc3nc(N4CCC(Nc5ccc6c(C7CCC(=O)NC7=O)nn(C)c6c5)CC4)ncc3Cl)ccc21 (stereo not shown) [Example 52, 3-(6-((1-(5-chloro-4-((1-methyl-2-oxoindolin-5-yl)amino)pyrimidin-2-yl)piperidin-4-yl)amino)-1-methyl-1H-indazol-3-yl)piperidine-2,6-dione] |
| < 20% | – | COCCN1C(=O)Cc2cc(Nc3nc(N4CC[C@@H](Nc5ccc6c([C@@H]7CCC(=O)NC7=O)nn(C)c6c5)[C@H](C)C4)ncc3Cl)ccc21 (single isomer, unassigned) [Example 77] |
| > 60% | – | C[C@H]1CN(c2ncc(Cl)c(Nc3ccc4c(c3)CC(=O)N4C)n2)CC[C@H]1Nc1ccc2c(C3CCC(=O)NC3=O)nn(C)c2c1 (stereo partly drawn) [Example 13, 3-(6-(((3S,4R)-1-(5-chloro-4-((1-methyl-2-oxoindolin-5-yl)amino)pyrimidin-2-yl)-3-methylpiperidin-4-yl)amino)-1-methyl-1H-indazol-3-yl)piperidine-2,6-dione] |

The next lines start with the compound.

| SMILES | Percent BCL6 remaining at maximal degradation (Ycon) | YCon (% remaining maximal effect) |
| --- | --- | --- |
| Cn1nc(C2CCC(=O)NC2=O)c2ccc(N3CCN(c4ncc(Cl)c(Nc5ccc6c(c5)CC(=O)N6)n4)CC3)cc21 (stereo not shown) [Example 34, 3-(6-(4-(5-chloro-4-((2-oxoindolin-5-yl)amino)pyrimidin-2-yl)piperazin-1-yl)-1-methyl-1H-indazol-3-yl)piperidine-2,6-dione] | > 60% | – |
| C[C@@H]1CN(c2ncc(Cl)c(Nc3ccc4c(c3F)CC(=O)N4C)n2)CC[C@H]1Nc1ccc2c(N3CCC(=O)NC3=O)nn(C)c2c1 [Example 142, 1-(6-(((3R,4R)-1-(5-chloro-4-((4-fluoro-1-methyl-2-oxoindolin-5-yl)amino)pyrimidin-2-yl)-3-methylpiperidin-4-yl)amino)-1-methyl-1H-indazol-3-yl)dihydropyrimidine-2,4(1H,3H)-dione] | < 20% | – |
| C[C@H]1C[C@H](Nc2ccc3c(C4CCC(=O)NC4=O)nn(C)c3c2)CCN1c1ncc(Cl)c(Nc2ccc3c(c2)CC(=O)N3C)n1 (stereo partly drawn) [Example 81, 3-(6-(((2S,4R)-1-(5-chloro-4-((1-methyl-2-oxoindolin-5-yl)amino)pyrimidin-2-yl)-2-methylpiperidin-4-yl)amino)-1-methyl-1H-indazol-3-yl)piperidine-2,6-dione] | < 20% | – |
| CN1C(=O)Cc2cc(Nc3nc(N(C)C4CC5CCC(C4)N5c4ccc5c(C6CCC(=O)NC6=O)nn(C)c5c4)ncc3Cl)ccc21 [Example 15, 3-(6-((1R,3s,5S)-3-((5-chloro-4-((1-methyl-2-oxoindolin-5-yl)amino)pyrimidin-2-yl)(methyl)amino)-8-azabicyclo[3.2.1]octan-8-yl)-1-methyl-1H-indazol-3-yl)piperidine-2,6-dione] | > 60% | – |
| C[C@H]1C(=O)N(c2ccc3c(C4CCC(=O)NC4=O)nn(C)c3c2)CC[C@@H]1N(C)c1ncc(Cl)c(Nc2ccc3c(c2)CC(=O)N3C)n1 (single isomer, unassigned) [Example 130] | > 60% | – |
| CN1C(=O)Cc2cc(Nc3nc(NC4CCN(c5ccc6c(C7CCC(=O)NC7=O)nn(C)c6c5)C(=O)C4)ncc3Cl)ccc21 (stereo not shown) [Example 126, 3-(6-(4-((5-chloro-4-((1-methyl-2-oxoindolin-5-yl)amino)pyrimidin-2-yl)amino)-2-oxopiperidin-1-yl)-1-methyl-1H-indazol-3-yl)piperidine-2,6-dione] | 20 to 60% | – |
| C[C@@H]1C[C@@H](Nc2ccc3c(C4CCC(=O)NC4=O)nn(C)c3c2)CCN1c1ncc(Cl)c(Nc2ccc3c(c2)CC(=O)N3C)n1 (stereo partly drawn) [Example 23, 3-(6-(((2R,4S)-1-(5-chloro-4-((1-methyl-2-oxoindolin-5-yl)amino)pyrimidin-2-yl)-2-methylpiperidin-4-yl)amino)-1-methyl-1H-indazol-3-yl)piperidine-2,6-dione] | > 60% | – |
| CN1C(=O)Cc2cc(Nc3nc(N(C)[C@H]4C[C@H]5CC[C@@H](C4)N5c4ccc5c(C6CCC(=O)NC6=O)nn(C)c5c4)ncc3Cl)ccc21 (stereo partly drawn) [Example 16, 3-(6-((1R,3r,5S)-3-((5-chloro-4-((1-methyl-2-oxoindolin-yl)amino)pyrimidin-2-yl)(methyl)amino)-8-azabicyclo[3.2.1]octan-8-yl)-1-methyl-1H-indazol-3-yl)piperidine-2,6-dione] | 20 to 60% | – |
| CN1C(=O)Cc2cc(Nc3nc(N4CCN(Cc5ccc6c(C7CCC(=O)NC7=O)nn(C)c6c5)CC4)ncc3Cl)ccc21 (stereo not shown) [Example 17, 3-(6-((4-(5-chloro-4-((1-methyl-2-oxoindolin-5-yl)amino)pyrimidin-2-yl)piperazin-1-yl)methyl)-1-methyl-1H-indazol-3-yl)piperidine-2,6-dione] | > 60% | – |
| C[C@@H]1CN(c2ncc(Cl)c(Nc3ccc4c(c3)CC(=O)N4C)n2)CC[C@H]1Nc1ccc2c(-n3cc(F)c(=O)[nH]c3=O)nn(C)c2c1 [Example 140, 1-(6-(((3R,4R)-1-(5-chloro-4-((1-methyl-2-oxoindolin-5-yl)amino)pyrimidin-2-yl)-3-methylpiperidin-4-yl)amino)-1-methyl-1H-indazol-3-yl)-5-fluoropyrimidine-2,4(1H,3H)-dione] | < 20% | – |
| C[C@H]1C[C@H](Nc2ccc3c([C@@H]4CCC(=O)NC4=O)nn(C)c3c2)CCN1c1ncc(Cl)c(Nc2ccc3c(c2)CC(=O)N3C)n1 (single isomer, unassigned) [Example 83] | 20 to 60% | – |
| CN1C(=O)Cc2cc(Nc3nc(N(C)C4CCN(c5cnc6c(C7CCC(=O)NC7=O)nn(C)c6c5)CC4)ncc3Cl)ccc21 (stereo not shown) [Example 59, 3-(6-(4-((5-chloro-4-((1-methyl-2-oxoindolin-5-yl)amino)pyrimidin-2-yl)(methyl)amino)piperidin-1-yl)-1-methyl-1H-pyrazolo[4,3-b]pyridin-3-yl)piperidine-2,6-dione] | > 60% | – |
| CO[C@@H]1CN(c2ncc(C#N)c(Nc3ccc4c(c3)CC(=O)N4C)n2)CC[C@H]1Nc1ccc2c(C3(C)CCC(=O)NC3=O)nn(C)c2c1 (stereo partly drawn) [Example 155, 2-((3R,4R)-3-methoxy-4-((1-methyl-3-(3-methyl-2,6-dioxopiperidin-3-yl)-1H-indazol-6-yl)amino)piperidin-1-yl)-4-((1-methyl-2-oxoindolin-5-yl)amino) pyrimidine-5-carbonitrile] | 20 to 60% | – |
| C[C@H]1C[C@@H](N(C)c2ncc(Cl)c(Nc3ccc4c(c3)CC(=O)N4C)n2)CCN1c1ccc2c(C3CCC(=O)NC3=O)nn(C)c2c1 (stereo partly drawn) [Example 20, 3-(6-((2S,4S)-4-((5-chloro-4-((1-methyl-2-oxoindolin-5-yl)amino)pyrimidin-2-yl)(methyl)amino)-2-methylpiperidin-1-yl)-1-methyl-1H-indazol-3-yl)piperidine-2,6-dione] | 20 to 60% | – |
| CN1C(=O)Cc2cc(Nc3nc(N(C)[C@H]4CC[C@H](Nc5ccc6c(C7CCC(=O)NC7=O)nn(C)c6c5)CC4)ncc3Cl)ccc21 (stereo partly drawn) [Example 3, 3-(6-(((trans)-4-((5-chloro-4-((1-methyl-2-oxoindolin-5-yl)amino)pyrimidin-2-yl)(methyl)amino)cyclohexyl)amino)-1-methyl-1H-indazol-3-yl)piperidine-2,6-dione] | > 60% | – |
